# PubChem BioAssay AID743355 (Broad Institute, 2014)
# Activity calls are given as the source filed them.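 Rule for the calls: active = signal drop with a fitted AC50 at or under twice the sample's highest valid dose; inconclusive = flat fit with signal down 30 to 70%, or poor fit; inactive = the rest, including signal rising.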
# Test system: not listed separately
# Assay: A549 cell cytotoxicity, dose response, cytotoxicity control, luminescence, dry powder, set 9 (AID 743355)
# Details: A549 viability, CellTiter-Glo ATP luminescence, 72 h; at 12 µM (top of the series)
row,Compound,normalized CellTiter-Glo signal change (more negative = more cytotoxic)
1,N#Cc1ccc(N2CCN(C(=O)c3ccc4c(c3)OCO4)CC2)cc1,-5.47% (inactive)

# Same assay, conditions: A549 viability, CellTiter-Glo ATP luminescence, 72 h; at 26 µM (top of the series)
row,Compound,normalized CellTiter-Glo signal change (more negative = more cytotoxic)
1,O=C(c1ccc2c(c1)OCO2)N1CCN(c2ccc(S(=O)(=O)C(F)F)cc2)CC1,17.7% (inactive)
2,O=C(c1ccc2c(c1)OCO2)N1CCN(c2ccc(S(=O)(=O)C(F)(F)F)cc2)CC1,21.5% (inactive)
3,CC(=O)c1ccc(N2CCN(C(=O)c3ccc4snnc4c3)CC2)cc1,-3.89% (inactive)
4,O=C(c1ccc2c(c1)OCO2)N1CCN(c2ccc(C(F)(F)F)cc2)CC1,1.09% (inactive)
5,CC(=O)c1ccc(N2CCN(C(=O)c3ccc(Cl)c(Cl)c3)CC2)cc1,5.05% (inactive)
6,CC(=O)c1ccc(N2CCN(C(=O)c3ccc4c(c3C)OCO4)CC2)cc1,-3.63% (inactive)
7,CC(=O)c1ccc(N2CCN(C(=O)c3ccc4c(c3)OC(C)(C)O4)CC2)cc1,5.78% (inactive)
8,CC(=O)c1ccc(N2CCN(C(=O)c3cc4c(cn3)OCO4)CC2)cc1,-11.9% (inactive)
9,CC(=O)c1ccc(N2CCN(C(=O)c3cc(Cl)c4c(c3)OCO4)CC2)cc1,6.94% (inactive)
10,COc1ccc(C(=O)N2CCN(c3ccc(C(C)=O)cc3)CC2)cc1OC,51.5% (inactive)
11,CN(C)S(=O)(=O)c1ccc(N2CCN(C(=O)c3ccc4c(c3)OCO4)CC2)cc1,-6.83% (inactive)
12,CC(=O)c1ccc(N2CCN(C(=O)c3ccc4c(c3)OC(F)(F)O4)CC2)cc1,-2.42% (inactive)
13,CC(=O)c1ccc(N2CCN(S(=O)(=O)c3ccc4c(c3)OCO4)CC2)cc1,-10.1% (inactive)
14,CC(=O)c1ccc(N2CCN(C(=O)c3cccc4c3OCO4)CC2)cc1,2.91% (inactive)
15,CC(=O)c1ccc(N2CC3CC2CN3C(=O)c2ccc3c(c2)OCO3)cc1 (stereo unspecified),-9.16% (inactive)
16,CS(=O)(=O)c1ccc(N2CCN(C(=O)c3ccc4c(c3)OCO4)CC2)cc1,-1.14% (inactive)
17,CC(=O)c1ccc(N2CCN(C(=O)c3cc4c(cc3C)OCO4)CC2)cc1,1.8% (inactive)
18,CC(=O)c1ccc(N2CCCN(C(=O)c3ccc4c(c3)OCO4)CC2)cc1,9.8% (inactive)
19,O=C(c1ccc2c(c1)OCO2)N1CCN(c2ccc(OC(F)(F)F)cc2)CC1,6.83% (inactive)
20,CC(=O)c1ccc(N2CCN(C(=O)c3ccc4ocnc4c3)CC2)cc1,4.94% (inactive)
21,COc1cc2c(cc1C(=O)N1CCN(c3ccc(C(C)=O)cc3)CC1)OCO2,-2.21% (inactive)
22,CC(=O)c1ccc(N2CCN(C(=O)c3ccc4c(c3)OCO4)CC2)cc1,-7.97% (inactive)
23,CC(=O)c1ccc(N2CCN(C(=O)c3cc4c(cc3Cl)OCO4)CC2)cc1,2.51% (inactive)
24,CC(=O)c1ccc(N2CCN(C(=O)Nc3ccc4c(c3)OCO4)CC2)cc1,-14.7% (inactive)

# Test system: A549 viability, CellTiter-Glo ATP luminescence, 72 h
# Assay: as above
# Details: not given
row,Compound,AC50
1,COc1cc(C(=O)N2CCN(c3ccc(C(C)=O)cc3)CC2)cc2c1OCO2,> 52 µM (inactive)
